Measurements published in patent EP0387527A1, “Process for the fermentative production of L-lysine” (Degussa Aktiengesellschaft, priority 1989, dated 1990).
Where two headings read alike, the source gives them in different places.

Key:
Format in all cases: biochemical
[1] = biological target: Aspartat-Kinase (AK), C. glutamicum DM58-1 (pZ1) (Corynebacterium glutamicum, UniProt P26512); test: Aspartate kinase test, residual activity with effector combinations
Procedure: (§1) Die Stämme ATCC13032 und DM58-1 wurden unter direkt vergleichbaren Bedingungen in Standard I Bouillon (Merck Art. Nr. 7882) mit zusätzlichen 4 g/l Glucose und 1 mM MgCl₂ bei 30 °C und 150 rpm bis zum Erreichen der früh stationären Phase kultiviert und durch Zentrifugation vom Kulturmedium getrennt. Man wäscht 3 Mal mit 100 mM Tris/HCl (pH 7,5); 1 mM DTT und suspendiert die Feuchtzellmasse in einem Volumenteil des gleiche Puffers.
(§2) Die so suspendierten Zellen wurden in einer Kugelmühle (B. Braun Melsungen - MSK-Homogenisator, IMA-Disintegrator S) durch Verrühren mit einer geeigneten Menge an Glasperlen aufgeschlossen. Das Zellhomogenat wurde mittels Glasfilternutsche von den Glasperlen getrennt und 30 Minuten bei 30000 x g klarzentrifugiert.
(§3) Nach 15stündiger Dialyse in Enzym-stabilisierendem Puffer wurden die Enzymaktivitäten in folgenden Testgemischen bestimmt:
(§4) Aspartat-Kinase Test: 100 mM Tris/HCl (pH 7,5), 1 mM DTT, 400 mM (NH₄)₂SO₄, 20 mM MgCl₂, 400 mM NH₂OH·HCl, 300 mM L-Aspartat, 40 mM ATP und verschiedene Mengen Enzympräparation. Durch Zugabe von 750 µl einer Lösung aus 10 % Fe Cl₃ 6H₂O; 3,3 % TCA; 0,7 N HCl zu 500 µl des Enzymtestgemisches wird die Enzymreaktion nach 30 minütiger Inkubation bei 37 °C gestoppt. Aus der mittels Eichkurvenverfahren photometrisch (ΔE540 nm) bestimmten Aspartyl-beta-Hydroxamat Konzentration wird die in µMol/mg·min (U/mg) angegebenen Enzymaktivität kalkuliert. Die zugehörigen Proteinkonzentrationen wurden nach der Methode von Lowry et al. (Lowry et al. J. Biol. Chem. 193, 265 (1951)) oder Bradford (Bradford Anal. Biochem. 72, 248 (1976)) durchgeführt. Der Aspartyl-β-semialdehyd Dehydrogenase Test enthält 120 mM Diethanolamin (pH 9,0); 40 mM Na AsO₄; 1 mM NADP⁺; 5 mM L-Threonin; 1,3 mM Aspartyl-beta-semialdehyd und verschiedene Mengen Enzympräparation in einem Gesamtvolumen von 1 ml. Die in µMol/mg·min (U/mg) angegebene Aktivitat wird über die photometrisch […] bestimmte NADPH Synthesegeschwindigkeit berechnet.
(§5) Aspartat-Kinase-Aktivität wurde in Stamm ATCC13032/pCS2, als positive Kontrolle in Stamm DM58-1 und als negative Kontrolle in Stamm ATCC13032 gemessen. Die Stämme wurden in Standard I Bouillon, das mit 4 g/l Glucose, 10 µg/ml Kanamycin und 1 mM MgCl₂ supplementiert war, kultiviert. Kulturbedingungen, Zellernte, Zellaufschluß und Bestimmung der Aspartat-Kinase wurden, wie unter 1.2 beschrieben, durchgeführt. Die Effektoren L-Lys, L-Thr und AEC werden jeweils als Stammlösungen in 100 mM Tris/HCl Puffer mit einem pH von 7,5 zugegeben.
(§6) Die Aspartat-Kinase-Aktivität und die Hemmbarkeit der Enzymaktivität durch Mischungen von Lysin bzw. AEC und Threonin wurde in den konstruierten Klonen bestimmt. Anzucht, Aufschluß und Aktivitätsbestimmung wurden, wie oben beschrieben, durchgeführt. Außerdem wurde die Fahigkeit der verschiedenen Klone untersucht, L-Lysin auszuscheiden. Hierfür wurde ein Agarplatten-Diffusionstest mit einem L-Lysin-auxotrophen Indikationsstamm von C. glutamicum verwendet. Aus Tabelle 4 ist zu entnehmen, daß sämtliche AEC resistenten Stämme eine partiell deregulierte Aspartat-Kinase-Aktivität besitzen und in der Lage sind, L-Lysin auszuscheiden. Tabelle 3

[2] = biological target: Aspartat-Kinase (AK), C. glutamicum ATCC13032 (pCS233) (Corynebacterium glutamicum, UniProt P26512); test: as above
Procedure: as §1, §2, §3, §4, §5, §6

[3] = biological target: Aspartat-Kinase (AK), C. glutamicum ATCC13032 (pCS24) (Corynebacterium glutamicum, UniProt P26512); test: as above
Procedure: as §1, §2, §3, §4, §5, §6

[4] = biological target: Aspartat-Kinase (AK), C. glutamicum ATCC13032 (pCS23) (Corynebacterium glutamicum, UniProt P26512); test: as above
Procedure: as §1, §2, §3, §4, §5, §6

[5] = biological target: Aspartat-Kinase (AK), C. glutamicum ATCC13032 (pCS26) (Corynebacterium glutamicum, UniProt P26512); test: as above
Procedure: as §1, §2, §3, §4, §5, §6

[6] = biological target: Aspartat-Kinase (AK), C. glutamicum ATCC13032 (pCS2) (Corynebacterium glutamicum, UniProt P26512); test: as above
Procedure: as §1, §2, §3, §4, §5, §6

[7] = biological target: T1, Aspartat-Kinase (AK) aus C. glutamicum ATCC13032 (Wildtyp-Enzym) (Corynebacterium glutamicum, UniProt P26512); test: Aspartate kinase test (hydroxamate), inhibition by effector combinations, dialysed crude extract
T1 construct: Rohextrakten identisch gezogener; endogenous in cells; host or cells: C. glutamicum ATCC13032, dialysed crude extract
T1 sequence (P26512 1-421): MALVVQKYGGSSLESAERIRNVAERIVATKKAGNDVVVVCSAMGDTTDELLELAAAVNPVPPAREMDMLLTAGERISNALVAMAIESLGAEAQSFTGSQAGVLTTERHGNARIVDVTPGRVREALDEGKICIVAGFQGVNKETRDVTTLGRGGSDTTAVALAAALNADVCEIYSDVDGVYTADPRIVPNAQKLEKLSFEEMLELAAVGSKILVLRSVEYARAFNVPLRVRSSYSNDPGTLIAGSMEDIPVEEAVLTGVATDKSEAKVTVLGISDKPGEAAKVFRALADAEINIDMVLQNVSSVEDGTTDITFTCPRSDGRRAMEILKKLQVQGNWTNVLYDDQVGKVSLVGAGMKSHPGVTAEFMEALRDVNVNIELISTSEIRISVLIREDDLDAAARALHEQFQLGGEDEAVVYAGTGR
T1 sequence (P26512 1-172 isoform P26512-2): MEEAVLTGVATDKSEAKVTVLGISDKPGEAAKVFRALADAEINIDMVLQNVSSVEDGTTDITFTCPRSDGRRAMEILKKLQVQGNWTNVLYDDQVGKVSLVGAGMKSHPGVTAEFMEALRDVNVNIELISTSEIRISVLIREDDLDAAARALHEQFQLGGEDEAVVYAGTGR
Procedure: as §1, §2, §3, §4
(§7) Tabelle 1 zeigt, das die bereits von K. Nakayama et al. (K. Nakayama et al. Agr. Biol. Chem. 30, 611 (1966)) angedeutete und von S.N. Kara-Murza et al. (S.N. Kara-Murza Prikladnaya Biokhimiya; Mikrobiologia 14, 345 (1978)) genauer untersuchte Hemmbarkeit des C. glutamicum Wildtyp-Enzyms durch uns reproduziert werden konnte. Dem gegen-übergestellt ist der deutlich differente Charakter des Enzyms der AEC resistenten Mutante DM58-1, deren Aspartat-Kinase nicht mehr konzertiert durch L-Lysin + L-Threonin hemmbar ist. Durch die am Enzym aus ATCC13032 Lysin-analog wirkenden Substanzen S-Aminoethyl-D,L-Cystein (AEC) wird das Enzym der Mutanten ebenfalls nur noch gering beeinflußt. Tabelle 1

[8] = biological target: Aspartat-Kinase (AK) aus C. glutamicum DM58-1 (AEC resistente Mutante von ATCC13032) (Corynebacterium glutamicum, UniProt P26512); test: as above
Procedure: as §1, §2, §3, §4, §7

[9] = biological target: Aspartat-Kinase (AK), C. glutamicum ATCC13032 (pCS21) (Corynebacterium glutamicum, UniProt P26512); test: Aspartate kinase test, residual activity with effector combinations
Procedure: as §1, §2, §3, §4, §5, §6

[10] = biological target: Aspartat-Kinase (AK), C. glutamicum ATCC13032 pCS22 (Corynebacterium glutamicum, UniProt P26512); test: as above
Procedure: as §1, §2, §3, §4, §5, §6

## NCCSCC(N)C(=O)O (racemic) [AEC, S-(Aminoethyl)-D,L-Cystein]
[1]; 100mM AEC + 10mM Thr
  AK Restaktivität (%) in Anwesenheit von 100mM AEC 10mM Thr: 93%
[2]; 100mM AEC + 10mM Thr
  AK Restaktivität (%) in Anwesenheit von 100mM AEC 10mM Thr: 57%
[3]; 100mM AEC + 10mM Thr
  AK Restaktivität (%) in Anwesenheit von 100mM AEC 10mM Thr: 62%
[4]; 100mM AEC + 10mM Thr
  AK Restaktivität (%) in Anwesenheit von 100mM AEC 10mM Thr: 56%
[5]; 100mM AEC + 10mM Thr
  AK Restaktivität (%) in Anwesenheit von 100mM AEC 10mM Thr: 60%
[6]; 100mM AEC + 10mM Thr
  AK Restaktivität (%) in Anwesenheit von 100mM AEC 10mM Thr: 56%
[7]; 10 mM AEC + 1 mM L-Thr, read-out: AK-Hemmung
  inhibition at 10000 µM: 12%
[7]; 10 mM AEC + 10 mM L-Thr, read-out: AK-Hemmung
  inhibition at 10000 µM: 41%
[7]; 100 mM AEC + 10 mM L-Thr, read-out: AK-Hemmung
  inhibition at 100000 µM: 95%
[8]; 10 mM AEC + 1 mM L-Thr
  AK-Hemmung: 0%
[8]; 10 mM AEC + 10 mM L-Thr
  AK-Hemmung: 0%
[8]; 100 mM AEC + 10 mM L-Thr
  AK-Hemmung: 7%

## NCCCC[C@H](N)C(=O)O [L-Lys, L-Lysin]
[1]; 10mM Lys + 1mM Thr
  AK Restaktivität (%) in Anwesenheit von 10mM Lys 1mM Thr: 83%
[1]; 10mM Lys + 10mM Thr
  AK Restaktivität (%) in Anwesenheit von 10mM Lys 10mM Thr: 100%
[1]; 100mM Lys + 10mM Thr
  AK Restaktivität (%) in Anwesenheit von 100mM Lys 10mM Thr: 79%
[2]; 10mM Lys + 1mM Thr
  AK Restaktivität (%) in Anwesenheit von 10mM Lys 1mM Thr: 56%
[2]; 10mM Lys + 10mM Thr
  AK Restaktivität (%) in Anwesenheit von 10mM Lys 10mM Thr: 62%
[2]; 100mM Lys + 10mM Thr
  AK Restaktivität (%) in Anwesenheit von 100mM Lys 10mM Thr: 36%
[3]; 10mM Lys + 1mM Thr
  AK Restaktivität (%) in Anwesenheit von 10mM Lys 1mM Thr: 65%
[3]; 10mM Lys + 10mM Thr
  AK Restaktivität (%) in Anwesenheit von 10mM Lys 10mM Thr: 65%
[3]; 100mM Lys + 10mM Thr
  AK Restaktivität (%) in Anwesenheit von 100mM Lys 10mM Thr: 40%
[4]; 10mM Lys + 1mM Thr
  AK Restaktivität (%) in Anwesenheit von 10mM Lys 1mM Thr: 51%
[4]; 10mM Lys + 10mM Thr
  AK Restaktivität (%) in Anwesenheit von 10mM Lys 10mM Thr: 57%
[4]; 100mM Lys + 10mM Thr
  AK Restaktivität (%) in Anwesenheit von 100mM Lys 10mM Thr: 30%
[9]; 10mM Lys + 1mM Thr
  AK Restaktivität (%) in Anwesenheit von 10mM Lys 1mM Thr: 46%
[9]; 10mM Lys + 10mM Thr
  AK Restaktivität (%) in Anwesenheit von 10mM Lys 10mM Thr: 50%
[9]; 100mM Lys + 10mM Thr
  AK Restaktivität (%) in Anwesenheit von 100mM Lys 10mM Thr: 24%
[10]; 10mM Lys + 1mM Thr
  AK Restaktivität (%) in Anwesenheit von 10mM Lys 1mM Thr: 40%
[10]; 10mM Lys + 10mM Thr
  AK Restaktivität (%) in Anwesenheit von 10mM Lys 10mM Thr: 41%
[10]; 100mM Lys + 10mM Thr
  AK Restaktivität (%) in Anwesenheit von 100mM Lys 10mM Thr: 22%
[5]; 10mM Lys + 1mM Thr
  AK Restaktivität (%) in Anwesenheit von 10mM Lys 1mM Thr: 64%
[5]; 10mM Lys + 10mM Thr
  AK Restaktivität (%) in Anwesenheit von 10mM Lys 10mM Thr: 63%
[5]; 100mM Lys + 10mM Thr
  AK Restaktivität (%) in Anwesenheit von 100mM Lys 10mM Thr: 39%
[6]; 10mM Lys + 1mM Thr
  AK Restaktivität (%) in Anwesenheit von 10mM Lys 1mM Thr: 55%
[6]; 10mM Lys + 10mM Thr
  AK Restaktivität (%) in Anwesenheit von 10mM Lys 10mM Thr: 55%
[6]; 100mM Lys + 10mM Thr
  AK Restaktivität (%) in Anwesenheit von 100mM Lys 10mM Thr: 28%
[7]; read-out: AK-Hemmung, 10 mM L-Lys + 1 mM (second inhibitor not named, L-Thr)
  inhibition at 10000 µM: 89%
[7]; read-out: AK-Hemmung, 10 mM L-Lys + 10 mM L-Thr
  inhibition at 10000 µM: 95%
[7]; read-out: AK-Hemmung, 100 mM L-Lys + 10 mM L-Thr
  inhibition at 100000 µM: 99%
[8]; 10 mM L-Lys + 1 mM (second inhibitor not named, L-Thr)
  AK-Hemmung: 12%
[8]; 10 mM L-Lys + 10 mM L-Thr
  AK-Hemmung: 2%
[8]; 100 mM L-Lys + 10 mM L-Thr
  AK-Hemmung: 21%
